SMILES strings stand for the structures.

Common to all, as to assay type: cell-based
Experiment [1] deals with T1, H7TMB56 (Homo sapiens, UniProt Q96LA9).
T1 construct: expressed in transfected cells
Nature of the experiment: intracellular cAMP production promoting activity in CHO cells stably expressing H7TMB56 (clone 22) versus mock cells. The note with it: for intracellular cAMP production promoting activity, dose dependency: CHO cell clone highly expressing H7TMB56, FIG. 13; for agonist activity to H7TMB56 (cAMP production), specificity and dose dependency: CHO clone 22 versus mock cells, FIGS. 8 and 9; for cAMP production promoting activity (specific agonist activity): dose of 10 μM, H7TMB56 CHO cells (FIG. 10) versus mock cells (FIG. 11). How it is done: The same expression vector as used in EXAMPLE 1 was transfected to CHO dhfr^− cells using Gene Transfer (Wako Pure Chemical Industries, Ltd.), which was cultured in nucleic acid-free medium to select transformants. […] The intracellular cAMP level was assayed using cAMP Screen Kit (Applied Biosystems, Inc.). […] Furthermore, the cAMP production promoting activities on H7TMB56 (FIG. 10) and mock cells (FIG. 11) were assayed with respect to various isoprenoid-related substances in a dose of 10 μM (1: isopentenyl pyrophosphate, 2: dimethylallyl pyrophosphate, 3: geranyl pyrophosphate, 4: farnesyl pyrophosphate, 5: geranylgeranyl pyrophosphate, 6: geraniol, 7: farnesol, 8: geranylgeraniol, 9: trans, trans-farnesol, 10: trans, trans-farnesyl bromide, 11: geranyl acetone, 12: geranyl acetate, 13: geranylamine and 14: geranyl chloride). As a result, the agonist activity specific to geranyl pyrophosphate was detected as well, in addition to farnesyl pyrophosphate and geranylgeranyl pyrophosphate (FIG. 10).
In a manner similar to EXAMPLE 2, the intracellular cAMP production promoting activity was assayed on 5 isoprenoid-related substances.

Experiment [2] addresses T1, H7TMB56. The experiment is described as follows: CRE promoter luciferase reporter gene assay in HEK293 cells transiently expressing H7TMB56. As to conditions: HEK293 cells bearing the H7TMB56 gene (SEQ ID NO: 2) versus other receptor control; 2×10^−4 to 10^−5 M; 4 hours; FIGS. 5 to 7. The text has this:
The H7TMB56-specific stimulating activity by the isoprenoid-related substances was detected using as an indicator the expression level of reporter gene product (luciferase) produced by expression induction of CRE promoter.
HEK293 cells were suspended in growth medium (DMEM (Dulbecco's Modified Eagle Medium) (Gibco BRL) supplemented with 10% fetal bovine serum (Gibco BRL)) and plated on a 96-well plate of black well (Beckton-Dickinson, Inc.) coated with collagen in 1×10^5 cells/well. […]
The transfected HEK293 cells were washed with an assay buffer (DMEM supplemented with 0.1 % bovine serum albumin), and commercially available compounds containing farnesyl pyrophosphate (Sigma) and geranylgeranyl pyrophosphate (Sigma) diluted with the assay buffer were added to the cells, respectively, in 2×10^−4 to 10^−5 M, followed by incubation at 37° C. for 4 hours in 5% CO2. After the supernatant was discarded, 50 μl of PicaGene LT2.0 (Toyo Ink Mfg. Co., Ltd.) was added as a substrate for assaying the luciferase activity and a luminescence level of the luciferase was measured on a plate reader (ARVO sx Multi-Label Counter, Wallac, Inc.).

Experiment [3] addresses T1, H7TMB56. The experiment is described as follows: internalization of H7TMB56-GFP fused protein in CHO cells, confocal microscope. The note with it: 10^−6 M added to the medium. The text has this: An expression plasmid was constructed to express a fused protein of Green Fluorescent Protein (GFP) cDNA isolated from jelly fish Auquorea victoria, fused to H7TMB56 at the C-terminus to fit the translation frame. In this case, a fragment excised out of GFP expression vector pQBI25 (Takara Shuzo Co., Ltd.) was used as GFP cDNA. In H7TMB56, its termination codon was modified by PCR to recognition sequence with restriction enzyme NheI, and the GFP fragment was ligated thereto, which was inserted into the expression vector pAKKO-111H described in EXAMPLE 1. The thus obtained plasmid of the H7TMB56 and GFP -fused protein expression vector was transfected to CHO cells by the following procedure. CHO cells were suspended in a growth medium [DMEM (Dulbecco's Modified Eagle Medium) (GIBCO BRL, Inc.) supplemented with 10% fetal bovine serum, and plated on a Lab-Tekii cover glass chamber with 4 chambers (Nalgen Nunc, Inc.) in a concentration of 0.6×10^5 cells/chamber. After incubation overnight at 37° C. in 5% CO2, transfection was performed. For transfection, Lipofectamine™ 2000 Reagent (GIBCO BRL, Inc., Inc.) was used. First, 2 μl of Lipofectamine™ 2000 Reagent was mixed with 50 μl of OPTI-MEM-I (GIBCO BRL, Inc.). […]

Experiment [4] has as its target T1, H7TMB56. The experiment is described as follows: activation (phosphorylation) of p44/42 MAP kinase in H7TMB56 expression CHO cells versus mock cells, western blotting. The note with it: 0.1 μM, 0, 5, 10 minutes, FIG. 14. How it is done:
H7TMB56 expression CHO cells and mock cells were plated on a 6-well plate in 3×10^5 cells/well, followed by incubation overnight. In order to make serum free, the medium was replaced by nucleic acid-free α-MEM medium supplemented with 0.1% BSA and incubation was further continued overnight. Immediately before the assay, pre-incubation was again carried out for 2 hours. After 0.1 μM of farnesyl pyrophosphate was added to the medium to initiate the treatment, the medium was removed by suction at regular time intervals and then a sample buffer for SDS-PAGE was added to terminate the reaction. SDS-PAGE was performed in a conventional manner to transfer the protein onto a nitrocellulose filter. Thereafter, phosphorylated p44/42 MAP kinase was detected following the instructions described in the manual of PhosphoPlus p44/42 MAPK (Thr202/Tyr204) Antibody Kit (Cell Signaling, Inc.).

T1 sequence (Q96LA9 whole entry): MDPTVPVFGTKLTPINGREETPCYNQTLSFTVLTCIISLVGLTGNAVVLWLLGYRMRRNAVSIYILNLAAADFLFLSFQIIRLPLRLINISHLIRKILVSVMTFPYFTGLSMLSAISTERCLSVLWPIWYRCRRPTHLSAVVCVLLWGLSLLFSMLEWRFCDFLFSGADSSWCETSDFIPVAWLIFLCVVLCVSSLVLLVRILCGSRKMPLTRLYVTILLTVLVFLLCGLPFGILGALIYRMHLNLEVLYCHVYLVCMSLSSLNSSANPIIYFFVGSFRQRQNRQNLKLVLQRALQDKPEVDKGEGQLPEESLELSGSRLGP

Take `CC(C)=CCC/C(C)=C/CC/C(C)=C/COP(=O)(O)OP(=O)(O)O` [farnesyl pyrophosphate]: at H7TMB56 [1], the “intracellular cAMP production promoting activity, dose dependency” value is “promoted the production of cAMP dose-dependently”; the “agonist activity to H7TMB56 (cAMP production), specificity and dose dependency” value is reported as “confirmed the specificity in the agonist activities”; the “cAMP production promoting activity (specific agonist activity)” value is listed as “detected”. Further, at H7TMB56 [2], the “luciferase activity (expression level of reporter gene product by CRE promoter)” value is “increased”. Also, on H7TMB56 [3], the “internalization of H7TMB56-GFP from cell membrane to cytoplasm” value was “internalization occurred”. Besides, the “phosphorylation of p44/42 MAP kinase” value at H7TMB56 [4] is given as “phosphorylation of MAP kinase was detected”.

Take `CC(C)=CCC/C(C)=C/COP(=O)(O)OP(=O)(O)O` [geranyl pyrophosphate]: at H7TMB56 [1], the “intracellular cAMP production promoting activity, dose dependency” value is listed as “promoted the production of cAMP dose-dependently” and the “cAMP production promoting activity (specific agonist activity)” value was “detected”.

Regarding `CC(C)=CCC/C(C)=C/CC/C(C)=C/CC/C(C)=C/COP(=O)(O)OP(=O)(O)O` [geranylgeranyl pyrophosphate], at H7TMB56 [1], the “intracellular cAMP production promoting activity, dose dependency” value is “promoted the production of cAMP dose-dependently”; the “agonist activity to H7TMB56 (cAMP production), specificity and dose dependency” value was “confirmed the specificity in the agonist activities”; the “cAMP production promoting activity (specific agonist activity)” value was “detected”. For the same compound, the “luciferase activity (expression level of reporter gene product by CRE promoter)” value on H7TMB56 [2] was “increased”.

Values taken from patent US20040248209A1, “Use of g protein-coupled receptor protein” (priority 2001, published 2004).
